PMC5762309 (Oncotarget, 2017)
Where “and” joins values, the source holds several entries; their conditions need not be identical. Equal values may be shown once. Read-outs that look alike come from different tables or passages of the source.

Columns and labels:
BaF3-tel-KIT-A829P = experiment: Anti-proliferation assay, transformed BaF3 cells; assay type: cell-based; conditions: Mus musculus, 72 hours, CellTiter-Glo
From the text: (§1) Retroviral constructs for BaF3-KIT mutants were made based on the pMSCVpuro (Clontech) backbone. For TEL-KIT vector, the first 1 kb of human TEL gene with an artificial myristoylation sequence ([…]) was cloned into the pMSCVpuro retroviral vector, followed by a 3xFLAG tag sequence. Then, the kinase domain coding sequence of KIT was inserted in-frame between TEL and 3xFLAG sequences. For full-length expression vectors, the coding sequences of KIT variants were directly cloned in pMSCVpuro vector with a 3xFLAG tag at the C-terminal end. All mutagenesis was performed using the QuikChange Site-Directed Mutagenesis Kit (Stratagene) following the manufacturer’s instructions. Retrovirus was packaged in HEK293T cells by transfecting KIT-containing MSCV vectors together with two helper plasmids. Virus supernatants were harvested 48 h after transfection and filtered before infection. Then BaF3 cells were infected with harvested virus supernatants using spinoculation protocol, and stable cell lines were obtained by puromycin selection for 48 h. The IL-3 concentrations in the culture medium were gradually withdrawn until cells were able to grow in the absence of IL-3.
(§2) Cells were grown in 96-well culture plates (2500/well). The compounds of various concentrations were added into the plates. Cell proliferation was determined after treatment with compounds for 72 hours. Cell viability was measured using the CellTiter–Glo assay (Promega, USA), according to the manufacturer’s instructions, and luminescence was measured in a multi-label reader (Envision, PerkinElmer, USA). Data were normalized to control groups (DMSO) and represented by the mean of three independent measurements with standard error <20%. GI50 values were calculated using Prism 5.0 (GraphPad Software, San Diego, CA).

BaF3-tel-KIT-T670I = experiment: Anti-proliferation assay, transformed BaF3 cells; assay type: cell-based; conditions: Mus musculus, 72 hours, CellTiter-Glo
From the text: as §1, §2

BaF3-tel-KIT-V559D-V654A = experiment: Anti-proliferation assay, transformed BaF3 cells; assay type: cell-based; conditions: Mus musculus, 72 hours, CellTiter-Glo
From the text: as §1, §2

BaF3-tel-KIT-V654A = experiment: Anti-proliferation assay, transformed BaF3 cells; assay type: cell-based; conditions: Mus musculus, 72 hours, CellTiter-Glo
From the text: as §1, §2

BaF3-tel-KIT = experiment: Anti-proliferation assay, transformed BaF3 cells; assay type: cell-based; conditions: Mus musculus, 72 hours, CellTiter-Glo
From the text: as §1, §2

KIT wt [1] = target: T1, KIT wt (Homo sapiens, UniProt P10721); experiment: KIT auto-phosphorylation in transformed BaF3 cells; assay type: cell-based; conditions: 2h
Target sequence in this assay (P10721 546-937 limits assumed): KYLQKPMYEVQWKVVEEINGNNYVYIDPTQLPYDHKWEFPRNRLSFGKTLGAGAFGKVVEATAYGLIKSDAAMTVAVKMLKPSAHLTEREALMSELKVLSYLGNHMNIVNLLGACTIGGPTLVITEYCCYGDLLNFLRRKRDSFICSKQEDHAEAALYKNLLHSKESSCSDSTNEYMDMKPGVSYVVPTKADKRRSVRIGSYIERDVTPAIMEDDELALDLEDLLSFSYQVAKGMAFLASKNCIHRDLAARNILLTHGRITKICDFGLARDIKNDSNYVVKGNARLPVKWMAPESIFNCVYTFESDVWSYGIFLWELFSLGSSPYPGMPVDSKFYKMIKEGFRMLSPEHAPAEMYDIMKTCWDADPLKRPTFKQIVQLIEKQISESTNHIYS

CDK11 = target: T2, CDK11 (Homo sapiens, UniProt Q9BWU1); experiment: KINOMEScan; assay type: binding; parameters: dose or concentration left out as unconfirmed
T2 construct: purchased DiscoverX KINOMEscan

CDK3 = target: T3, CDK3 (Homo sapiens, UniProt Q00526); experiment: KINOMEScan; assay type: binding; parameters: dose or concentration left out as unconfirmed
T3 construct: purchased DiscoverX KINOMEscan

DCAMKL1 = target: T4, DCAMKL1 (Homo sapiens, UniProt O15075); experiment: KINOMEScan; assay type: binding; parameters: dose or concentration left out as unconfirmed
T4 construct: purchased DiscoverX KINOMEscan
T4 sequence (O15075 whole entry): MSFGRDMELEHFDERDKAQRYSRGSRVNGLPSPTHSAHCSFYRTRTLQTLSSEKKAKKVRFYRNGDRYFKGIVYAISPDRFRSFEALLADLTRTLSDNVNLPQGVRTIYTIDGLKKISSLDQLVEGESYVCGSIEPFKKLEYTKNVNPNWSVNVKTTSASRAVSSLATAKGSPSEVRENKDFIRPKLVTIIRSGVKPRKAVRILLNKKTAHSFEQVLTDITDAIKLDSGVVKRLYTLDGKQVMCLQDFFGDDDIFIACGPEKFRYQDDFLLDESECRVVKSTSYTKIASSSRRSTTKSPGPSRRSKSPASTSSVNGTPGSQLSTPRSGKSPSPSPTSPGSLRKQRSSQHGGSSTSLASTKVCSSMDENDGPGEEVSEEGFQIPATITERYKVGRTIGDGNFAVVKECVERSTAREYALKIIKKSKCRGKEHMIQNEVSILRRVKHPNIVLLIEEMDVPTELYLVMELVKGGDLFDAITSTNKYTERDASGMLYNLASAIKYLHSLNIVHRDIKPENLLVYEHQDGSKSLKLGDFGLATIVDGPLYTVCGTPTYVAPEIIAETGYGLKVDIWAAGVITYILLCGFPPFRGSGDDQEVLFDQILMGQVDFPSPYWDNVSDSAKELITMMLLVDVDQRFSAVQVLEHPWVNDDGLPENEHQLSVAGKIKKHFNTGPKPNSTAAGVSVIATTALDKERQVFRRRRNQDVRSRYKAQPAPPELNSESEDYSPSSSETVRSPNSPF

EGFR = target: T5, EGFR (Homo sapiens, UniProt P00533); experiment: KINOMEScan; assay type: binding; parameters: dose or concentration left out as unconfirmed
T5 construct: purchased DiscoverX KINOMEscan

EGFR(L858R) = target: T6, EGFR(L858R) (Homo sapiens, UniProt P00533, L858R); experiment: KINOMEScan; assay type: binding; parameters: dose or concentration left out as unconfirmed
T6 construct: purchased DiscoverX KINOMEscan
T6 sequence (P00533 25-1210 L858R): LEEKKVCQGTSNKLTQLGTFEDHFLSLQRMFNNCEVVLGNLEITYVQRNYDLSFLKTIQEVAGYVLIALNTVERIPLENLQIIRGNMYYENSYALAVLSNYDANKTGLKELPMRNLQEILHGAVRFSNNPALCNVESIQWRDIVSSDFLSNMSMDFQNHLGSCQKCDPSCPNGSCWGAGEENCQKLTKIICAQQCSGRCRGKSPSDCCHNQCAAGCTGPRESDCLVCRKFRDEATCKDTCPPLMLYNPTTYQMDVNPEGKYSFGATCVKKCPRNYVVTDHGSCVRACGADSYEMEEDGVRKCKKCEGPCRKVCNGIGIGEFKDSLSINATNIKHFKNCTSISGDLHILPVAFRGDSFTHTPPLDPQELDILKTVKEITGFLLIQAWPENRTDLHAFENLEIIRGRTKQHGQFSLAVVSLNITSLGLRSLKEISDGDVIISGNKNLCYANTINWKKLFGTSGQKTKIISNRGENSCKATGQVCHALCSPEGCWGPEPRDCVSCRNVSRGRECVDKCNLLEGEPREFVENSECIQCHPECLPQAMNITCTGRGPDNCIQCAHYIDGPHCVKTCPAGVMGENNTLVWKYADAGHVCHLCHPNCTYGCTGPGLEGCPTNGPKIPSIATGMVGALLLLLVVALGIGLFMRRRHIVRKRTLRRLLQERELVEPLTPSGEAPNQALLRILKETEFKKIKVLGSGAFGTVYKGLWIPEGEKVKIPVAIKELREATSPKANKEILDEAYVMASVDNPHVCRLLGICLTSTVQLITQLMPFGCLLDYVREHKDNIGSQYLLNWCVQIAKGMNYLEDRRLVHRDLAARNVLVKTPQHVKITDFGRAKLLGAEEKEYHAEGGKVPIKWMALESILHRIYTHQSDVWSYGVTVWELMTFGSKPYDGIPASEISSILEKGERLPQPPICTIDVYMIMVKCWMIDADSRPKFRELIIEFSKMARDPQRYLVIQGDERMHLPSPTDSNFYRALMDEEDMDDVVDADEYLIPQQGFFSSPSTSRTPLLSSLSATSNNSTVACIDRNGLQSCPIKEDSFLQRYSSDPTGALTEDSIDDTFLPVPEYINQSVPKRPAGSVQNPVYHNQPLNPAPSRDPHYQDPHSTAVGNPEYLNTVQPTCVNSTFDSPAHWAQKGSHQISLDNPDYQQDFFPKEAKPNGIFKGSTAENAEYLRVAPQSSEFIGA

EPHA5 = target: T7, EPHA5 (Homo sapiens, UniProt P54756); experiment: KINOMEScan; assay type: binding; parameters: dose or concentration left out as unconfirmed
T7 construct: purchased DiscoverX KINOMEscan

FLT3(ITD) = experiment: KINOMEScan; assay type: binding; parameters: dose or concentration left out as unconfirmed
[2] = target: T8, JAK1(JH1domain-catalytic) (Homo sapiens, UniProt P23458); experiment: KINOMEScan; assay type: binding; parameters: dose or concentration left out as unconfirmed
T8 construct: JAK1(JH1domain-catalytic); purchased DiscoverX KINOMEscan
T8 sequence (P23458 875-1154 limits assumed): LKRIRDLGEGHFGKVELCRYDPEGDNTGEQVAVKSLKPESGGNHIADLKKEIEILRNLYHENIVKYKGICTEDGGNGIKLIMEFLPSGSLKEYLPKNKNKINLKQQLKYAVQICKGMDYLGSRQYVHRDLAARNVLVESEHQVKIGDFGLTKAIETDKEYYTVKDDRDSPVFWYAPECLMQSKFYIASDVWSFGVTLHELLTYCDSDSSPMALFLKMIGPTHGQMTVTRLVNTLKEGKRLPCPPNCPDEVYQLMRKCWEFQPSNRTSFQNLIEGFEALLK

JNK2 = target: T9, JNK2 (Homo sapiens, UniProt P45984); experiment: KINOMEScan; assay type: binding; parameters: dose or concentration left out as unconfirmed
T9 construct: purchased DiscoverX KINOMEscan

MET = target: T10, MET (Homo sapiens, UniProt P08581); experiment: KINOMEScan; assay type: binding; parameters: dose or concentration left out as unconfirmed
T10 construct: purchased DiscoverX KINOMEscan

SYK = target: T11, SYK (Homo sapiens, UniProt P43405); experiment: KINOMEScan; assay type: binding; parameters: dose or concentration left out as unconfirmed
T11 construct: purchased DiscoverX KINOMEscan

ULK1 = target: T12, ULK1 (Homo sapiens, UniProt O75385); experiment: KINOMEScan; assay type: binding; parameters: dose or concentration left out as unconfirmed
T12 construct: purchased DiscoverX KINOMEscan

[3] = system: BaF3-TEL-KIT-V559D tumors; experiment: BaF3-TEL-KIT-V559D allograft model
KIT V559D [4] = target: T13, KIT V559D (Homo sapiens, UniProt P10721, V559D); experiment: KIT auto-phosphorylation in transformed BaF3 cells; conditions: 2h
Target sequence in this assay (P10721 546-976 V559D): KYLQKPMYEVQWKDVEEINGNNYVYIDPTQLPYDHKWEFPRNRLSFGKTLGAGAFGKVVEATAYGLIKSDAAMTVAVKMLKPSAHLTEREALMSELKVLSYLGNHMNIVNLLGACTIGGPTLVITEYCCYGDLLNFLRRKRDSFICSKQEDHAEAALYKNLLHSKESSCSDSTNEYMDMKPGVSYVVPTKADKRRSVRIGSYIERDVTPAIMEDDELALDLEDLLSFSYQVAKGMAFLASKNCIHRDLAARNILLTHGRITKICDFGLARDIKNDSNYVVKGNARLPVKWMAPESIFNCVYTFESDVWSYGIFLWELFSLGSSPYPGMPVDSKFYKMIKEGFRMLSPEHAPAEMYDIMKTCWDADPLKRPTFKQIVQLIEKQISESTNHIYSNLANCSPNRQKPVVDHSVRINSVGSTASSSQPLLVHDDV

KIT T670I = KIT T670I (Homo sapiens, UniProt P10721, T670I); experiment: KIT auto-phosphorylation in transformed BaF3 cells; conditions: 2h
Sequence of KIT T670I (P10721 26-976 T670I): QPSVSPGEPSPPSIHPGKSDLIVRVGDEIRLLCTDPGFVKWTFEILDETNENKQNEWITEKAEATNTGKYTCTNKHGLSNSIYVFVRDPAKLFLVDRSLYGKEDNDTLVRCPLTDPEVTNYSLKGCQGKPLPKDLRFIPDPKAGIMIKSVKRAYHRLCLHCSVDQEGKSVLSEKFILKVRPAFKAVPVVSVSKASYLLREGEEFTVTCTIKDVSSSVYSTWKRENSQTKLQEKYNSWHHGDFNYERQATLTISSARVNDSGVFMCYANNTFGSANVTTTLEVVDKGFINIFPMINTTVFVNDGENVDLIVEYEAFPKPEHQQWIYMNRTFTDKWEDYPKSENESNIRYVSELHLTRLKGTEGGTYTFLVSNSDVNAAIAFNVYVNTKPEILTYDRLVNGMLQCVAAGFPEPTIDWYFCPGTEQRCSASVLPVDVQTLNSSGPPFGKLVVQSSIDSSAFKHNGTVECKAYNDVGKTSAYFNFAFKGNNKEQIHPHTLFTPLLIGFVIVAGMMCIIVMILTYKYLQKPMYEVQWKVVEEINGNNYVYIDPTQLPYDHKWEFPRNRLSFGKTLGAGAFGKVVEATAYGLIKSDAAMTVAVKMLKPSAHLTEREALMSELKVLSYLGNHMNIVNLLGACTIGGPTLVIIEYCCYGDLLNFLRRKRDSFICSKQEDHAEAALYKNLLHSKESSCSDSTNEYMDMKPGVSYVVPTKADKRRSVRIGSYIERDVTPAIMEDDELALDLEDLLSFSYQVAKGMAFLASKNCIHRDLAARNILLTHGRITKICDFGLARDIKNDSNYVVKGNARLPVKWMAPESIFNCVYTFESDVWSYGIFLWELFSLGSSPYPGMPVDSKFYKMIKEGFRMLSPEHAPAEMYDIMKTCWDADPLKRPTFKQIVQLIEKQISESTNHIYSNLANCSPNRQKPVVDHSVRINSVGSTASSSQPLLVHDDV

KIT D816V = KIT D816V (Homo sapiens, UniProt P10721, D816V); experiment: KIT auto-phosphorylation in transformed BaF3 cells; conditions: 2h
Sequence of KIT D816V (P10721 26-976 D816V): as the sequence (P10721 26-976 T670I) above, with I645T, D791V counted along it

KIT wt [5] = target: T1, KIT wt; experiment: ADP-Glo biochemical assay; parameters: wt KIT residues 544-935 with a His tag; His tag; made in house; host or cells: SF9 insect cells (baculovirus); conditions: purified kinase protein, 100 μM ATP
Target sequence in this assay (P10721 544-935): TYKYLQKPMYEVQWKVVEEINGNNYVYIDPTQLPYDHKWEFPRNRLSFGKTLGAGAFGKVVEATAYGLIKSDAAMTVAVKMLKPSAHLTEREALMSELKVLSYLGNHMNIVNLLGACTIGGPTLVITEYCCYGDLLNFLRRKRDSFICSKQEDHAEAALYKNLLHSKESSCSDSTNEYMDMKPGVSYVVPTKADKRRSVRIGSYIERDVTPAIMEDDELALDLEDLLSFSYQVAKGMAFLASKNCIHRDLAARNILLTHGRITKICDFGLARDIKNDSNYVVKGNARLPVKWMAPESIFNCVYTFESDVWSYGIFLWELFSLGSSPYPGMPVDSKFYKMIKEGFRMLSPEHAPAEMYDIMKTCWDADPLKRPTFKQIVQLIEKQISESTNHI

KIT V559D [6] = target: T13, KIT V559D; experiment: ADP-Glo biochemical assay; parameters: Kit V559D encoding residues 545-976 with His tag; His tag; made in house; host or cells: SF9 insect cells (baculovirus)
Target sequence in this assay (P10721 545-976 V559D): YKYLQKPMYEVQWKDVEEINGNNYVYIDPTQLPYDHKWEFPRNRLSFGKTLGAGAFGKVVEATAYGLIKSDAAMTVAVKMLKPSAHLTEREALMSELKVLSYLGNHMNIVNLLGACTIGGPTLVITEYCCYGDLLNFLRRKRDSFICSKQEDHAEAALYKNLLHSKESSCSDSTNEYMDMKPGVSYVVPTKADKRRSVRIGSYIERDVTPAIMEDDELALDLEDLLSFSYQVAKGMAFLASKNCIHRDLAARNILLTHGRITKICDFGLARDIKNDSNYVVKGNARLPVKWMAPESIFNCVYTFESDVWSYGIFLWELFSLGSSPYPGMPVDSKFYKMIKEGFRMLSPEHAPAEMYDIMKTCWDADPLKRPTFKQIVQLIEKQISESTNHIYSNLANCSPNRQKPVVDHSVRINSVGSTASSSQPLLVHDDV

[7] = EC50 pY703 auto-phosphorylation
[8] = EC50 pY719 auto-phosphorylation
[9] = EC50 pY823 auto-phosphorylation

In the case of COc1cc(C(=O)NCC(=O)Nc2ccc3c(/C=C/c4ccccn4)n[nH]c3c2)cc(OC)c1OC [CHMFL-KIT-031], the GI50 (BaF3-tel-KIT-A829P) is reported as 1800 nM, the GI50 (BaF3-tel-KIT-T670I) is reported as greater than 10000 nM and the GI50 (BaF3-tel-KIT-V559D-V654A) is reported as 810 nM. It also gave a GI50 (BaF3-tel-KIT-V654A) of 400 nM, a GI50 (BaF3-tel-KIT) greater than 10000 nM and an EC50 (KIT wt [1]; read-out: EC50 pY703 auto-phosphorylation) of 1900 nM. The EC50 (KIT wt [1]; read-out: EC50 pY719 auto-phosphorylation) was 8200 nM, the EC50 (KIT wt [1]; read-out: EC50 pY823 auto-phosphorylation) was 6900 nM and the KINOMEScan profiling value (CDK11) was 59. It also gave a KINOMEScan profiling value (CDK3) of 100, a KINOMEScan profiling value (DCAMKL1) of 100 and a KINOMEScan profiling value (EGFR) of 100. For the same compound, the KINOMEScan profiling value (EGFR(L858R)) was 100, the KINOMEScan profiling value (EPHA5) was 100 and the KINOMEScan profiling value (FLT3(ITD)) was 44. For the same compound, the KINOMEScan profiling value [2] was 87, the KINOMEScan profiling value (JNK2) was 92 and the KINOMEScan profiling value (MET) was 100. It also gave a KINOMEScan profiling value (SYK) of 100, a KINOMEScan profiling value (ULK1) of 92 and a TGI ([3]; 100mg/kg/d IP, 10 days) of 68.5%. For the same compound, the “KIT, AKT, S6 and STAT3 phosphorylation in tumor tissue” value ([3]; starting from 50 mg/kg, Western blot after 10-day treatment) was “significantly affect”, the EC50 (KIT V559D [4]; [7]) was 151 nM and the EC50 (KIT V559D [4]; [8]) was 137 nM. The EC50 (KIT V559D [4]; [9]) was 118 nM, the EC50 (KIT T670I; [7]) was greater than 10000 nM and the EC50 (KIT T670I; [8]) was greater than 10000 nM. For the same compound, the EC50 (KIT T670I; [9]) was 1100 nM, the EC50 (KIT D816V; [7]) was greater than 10000 nM and the EC50 (KIT D816V; [8]) was greater than 10000 nM. The EC50 (KIT D816V; [9]) was 4590 nM, the IC50 (KIT wt [5]) was 168 nM and the “selectivity over KIT wt (IC50)” value (KIT V559D [6]; ADP-Glo, KIT V559D vs KIT wt) was “about 6 fold”. The IC50 (KIT V559D [6]; purified kinase protein, ADP-Glo, 100 μM ATP) was 28.2 nM and 28 nM and the “selectivity over KIT wt” value (KIT V559D [6]; summary statement) was 10 fold.
